Assay results: article PMC3898733 (ACS nano, 2013)

System: Factor VII
Test: In vivo Factor VII silencing
Settings: for knock down of coagulation Factor VII: as stated in the abstract, dose not printed there; for activity in decreasing Factor VII expression: nanoparticles decorated with scrambled peptide, three days post injection

| Substance | knock down of coagulation Factor VII | reduction of Factor VII expression (peptide decorated nanoparticles with Factor VII siRNA, tail vein, 5 mg/kg siRNA, blood three days post-injection, n=5) | activity in decreasing Factor VII expression (5 mg/kg siRNA) |
| --- | --- | --- | --- |
| CWLCRALIKRIQAMIP [compound 5] | 90% | 50% | – |
| KRCRGWRQKMCLW | – | – | did not exhibit any activity |
| LRGYEGHRCGILALLDLACTKHANCLPCTQPS | – | – | did not exhibit any activity |
| MLRIAIRAWLCIPQCK | – | – | did not exhibit any activity |
| lactoferricin | 90% | – | – |
